Measurements reported in patent US6534507B1 (Fabre-Kramer Pharmaceuticals, Inc., priority 1999, dated 2003).
“And” between values parts separate entries of the source, which are not always exact repeats. Identical values can stand only once.

Experiments:
5-HT1A receptor = biological target: T1, 5-HT1A receptor (Homo sapiens, UniProt P08908); experiment: human monoamine GPCR binding profile, 5-HT1A
T1 construct: expressed in transfected cells
T1 sequence (P08908 1-422): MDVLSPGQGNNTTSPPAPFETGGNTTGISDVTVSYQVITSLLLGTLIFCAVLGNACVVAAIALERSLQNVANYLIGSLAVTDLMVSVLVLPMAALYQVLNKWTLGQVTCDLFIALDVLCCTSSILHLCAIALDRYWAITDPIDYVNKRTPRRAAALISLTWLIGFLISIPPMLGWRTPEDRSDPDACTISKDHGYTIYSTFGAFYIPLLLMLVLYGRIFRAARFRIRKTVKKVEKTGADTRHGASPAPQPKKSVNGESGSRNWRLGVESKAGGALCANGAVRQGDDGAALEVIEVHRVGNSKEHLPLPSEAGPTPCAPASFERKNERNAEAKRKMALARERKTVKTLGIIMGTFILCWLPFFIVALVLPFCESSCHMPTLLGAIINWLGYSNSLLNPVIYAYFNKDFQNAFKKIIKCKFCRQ
Source text: (§1) As known in the art, human monoamine GPCR binding profiles were obtained using heterologously expressed cloned human GPCRs in the binding experiments. Both pKi and IC50 (nM concentration) values were obtained as well as an average value of each from at least three determinations.

D2A = biological target: T2, D2A (Homo sapiens, UniProt P14416); experiment: dopaminergic receptor binding, D2A; conditions: result in words
T2 construct: expressed in transfected cells
T2 sequence (P14416 whole entry): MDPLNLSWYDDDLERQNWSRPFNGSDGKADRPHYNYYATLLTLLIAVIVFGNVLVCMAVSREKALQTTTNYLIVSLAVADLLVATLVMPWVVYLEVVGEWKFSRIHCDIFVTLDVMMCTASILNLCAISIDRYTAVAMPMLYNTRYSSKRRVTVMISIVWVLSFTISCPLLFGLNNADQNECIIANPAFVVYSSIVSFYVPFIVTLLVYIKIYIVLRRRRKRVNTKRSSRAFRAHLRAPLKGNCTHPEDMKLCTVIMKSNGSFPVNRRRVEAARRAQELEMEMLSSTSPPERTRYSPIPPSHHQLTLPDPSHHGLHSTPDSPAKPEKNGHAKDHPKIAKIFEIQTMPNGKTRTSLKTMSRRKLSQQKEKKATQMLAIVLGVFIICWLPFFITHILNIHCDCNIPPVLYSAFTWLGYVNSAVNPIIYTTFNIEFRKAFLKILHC
Procedure: as §1
(§2) Dopaminergic receptors D2A, D2B, D3, and D4 were also tested.

D2B = biological target: T3, D2B (Homo sapiens, UniProt P14416); experiment: dopaminergic receptor binding, D2B; conditions: result in words
T3 construct: expressed in transfected cells
T3 sequence (P14416 1-414 isoform P14416-2): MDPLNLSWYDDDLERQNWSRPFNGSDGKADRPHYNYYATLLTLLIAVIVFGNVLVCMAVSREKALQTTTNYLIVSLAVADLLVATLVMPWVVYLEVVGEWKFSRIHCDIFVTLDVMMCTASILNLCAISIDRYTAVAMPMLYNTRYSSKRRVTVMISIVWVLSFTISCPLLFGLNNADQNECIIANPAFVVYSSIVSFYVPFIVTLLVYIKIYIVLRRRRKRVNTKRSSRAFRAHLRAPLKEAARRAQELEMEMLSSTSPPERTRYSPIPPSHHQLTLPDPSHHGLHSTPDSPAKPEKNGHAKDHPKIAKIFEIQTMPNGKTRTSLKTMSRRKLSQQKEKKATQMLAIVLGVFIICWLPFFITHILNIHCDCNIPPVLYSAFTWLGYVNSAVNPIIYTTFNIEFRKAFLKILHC
Procedure: as §1, §2

D3 = biological target: T4, D3 (Homo sapiens, UniProt P35462); experiment: dopaminergic receptor binding, D3; conditions: result in words
T4 construct: expressed in transfected cells
T4 sequence (P35462 whole entry): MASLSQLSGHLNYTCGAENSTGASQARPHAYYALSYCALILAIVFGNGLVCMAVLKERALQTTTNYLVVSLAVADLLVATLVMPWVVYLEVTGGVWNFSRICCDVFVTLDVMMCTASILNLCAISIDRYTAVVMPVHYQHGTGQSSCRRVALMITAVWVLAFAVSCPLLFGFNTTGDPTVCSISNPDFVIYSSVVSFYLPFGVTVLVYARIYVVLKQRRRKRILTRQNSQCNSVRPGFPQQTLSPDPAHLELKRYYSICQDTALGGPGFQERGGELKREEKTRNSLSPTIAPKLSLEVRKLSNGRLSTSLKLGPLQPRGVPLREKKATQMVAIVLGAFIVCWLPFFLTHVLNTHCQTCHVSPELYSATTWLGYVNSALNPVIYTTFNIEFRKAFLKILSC
Procedure: as §1, §2

D4 = biological target: T5, D4 (Homo sapiens, UniProt P21917); experiment: dopaminergic receptor binding, D4
T5 construct: expressed in transfected cells
T5 sequence (P21917 1-419): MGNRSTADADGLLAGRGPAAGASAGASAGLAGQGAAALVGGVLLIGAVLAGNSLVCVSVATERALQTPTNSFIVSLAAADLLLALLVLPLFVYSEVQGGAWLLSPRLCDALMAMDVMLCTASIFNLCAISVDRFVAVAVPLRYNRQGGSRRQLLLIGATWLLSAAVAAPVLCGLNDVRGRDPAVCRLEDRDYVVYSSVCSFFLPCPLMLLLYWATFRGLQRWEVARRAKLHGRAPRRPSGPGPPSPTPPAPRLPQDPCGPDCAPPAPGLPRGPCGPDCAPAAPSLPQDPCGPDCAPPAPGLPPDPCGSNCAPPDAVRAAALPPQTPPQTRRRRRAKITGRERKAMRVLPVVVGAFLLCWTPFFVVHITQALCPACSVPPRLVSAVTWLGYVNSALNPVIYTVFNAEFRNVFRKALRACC
Procedure: as §1, §2

Alpha 2A = biological target: T6, Alpha 2A (Homo sapiens, UniProt P08913); experiment: alpha-adrenergic receptor binding, Alpha 2A; conditions: result in words
T6 construct: expressed in transfected cells
T6 sequence (P08913 1-465): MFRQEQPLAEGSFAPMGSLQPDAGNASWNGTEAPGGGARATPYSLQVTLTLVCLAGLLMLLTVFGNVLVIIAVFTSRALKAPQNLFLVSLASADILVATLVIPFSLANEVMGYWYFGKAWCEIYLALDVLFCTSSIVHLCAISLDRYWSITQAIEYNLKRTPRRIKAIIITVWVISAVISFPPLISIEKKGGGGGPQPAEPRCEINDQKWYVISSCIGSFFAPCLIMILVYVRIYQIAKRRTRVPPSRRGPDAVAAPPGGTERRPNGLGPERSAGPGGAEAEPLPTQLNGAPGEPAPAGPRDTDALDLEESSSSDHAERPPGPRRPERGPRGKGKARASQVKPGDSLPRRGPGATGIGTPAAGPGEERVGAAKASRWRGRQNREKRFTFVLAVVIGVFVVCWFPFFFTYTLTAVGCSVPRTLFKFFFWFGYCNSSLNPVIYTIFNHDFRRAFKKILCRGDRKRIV
Procedure: as §1, §2

Alpha 2B = biological target: T7, Alpha 2B (Homo sapiens, UniProt P18089); experiment: alpha-adrenergic receptor binding, Alpha 2B; conditions: result in words
T7 construct: expressed in transfected cells
T7 sequence (P18089 1-450): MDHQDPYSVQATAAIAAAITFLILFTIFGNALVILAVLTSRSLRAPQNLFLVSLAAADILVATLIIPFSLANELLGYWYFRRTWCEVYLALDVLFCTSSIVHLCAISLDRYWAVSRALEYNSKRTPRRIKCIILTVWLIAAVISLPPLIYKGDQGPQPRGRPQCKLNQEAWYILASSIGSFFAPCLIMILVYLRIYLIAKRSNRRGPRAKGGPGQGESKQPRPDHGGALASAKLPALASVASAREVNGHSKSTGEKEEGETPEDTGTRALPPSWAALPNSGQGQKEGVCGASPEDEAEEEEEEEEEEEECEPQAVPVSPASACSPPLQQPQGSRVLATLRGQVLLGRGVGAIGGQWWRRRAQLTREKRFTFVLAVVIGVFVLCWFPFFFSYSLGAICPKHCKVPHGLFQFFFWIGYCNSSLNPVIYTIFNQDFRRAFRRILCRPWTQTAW
Procedure: as §1, §2

Alpha 2C receptor = biological target: T8, Alpha 2C receptor (Homo sapiens, UniProt P18825); experiment: alpha-adrenergic receptor binding, Alpha 2C; conditions: result in words
T8 construct: expressed in transfected cells
T8 sequence (P18825 1-462): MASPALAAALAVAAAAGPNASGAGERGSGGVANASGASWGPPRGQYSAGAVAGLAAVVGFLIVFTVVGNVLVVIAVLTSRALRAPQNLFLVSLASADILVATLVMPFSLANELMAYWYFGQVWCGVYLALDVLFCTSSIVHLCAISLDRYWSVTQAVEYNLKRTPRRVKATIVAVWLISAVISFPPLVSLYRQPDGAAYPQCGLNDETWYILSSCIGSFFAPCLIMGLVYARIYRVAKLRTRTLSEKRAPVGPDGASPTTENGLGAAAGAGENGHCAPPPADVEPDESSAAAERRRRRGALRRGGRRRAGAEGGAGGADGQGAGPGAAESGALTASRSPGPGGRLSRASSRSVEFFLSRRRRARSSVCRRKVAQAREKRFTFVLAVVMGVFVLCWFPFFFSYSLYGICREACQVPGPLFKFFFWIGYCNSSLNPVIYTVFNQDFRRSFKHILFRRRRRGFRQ
Procedure: as §1, §2

M1 = biological target: T9, M1 (Homo sapiens, UniProt P11229); experiment: muscarinic receptor binding, M1; conditions: read-out: pKi M1 (converted)
T9 construct: expressed in transfected cells
T9 sequence (P11229 1-460): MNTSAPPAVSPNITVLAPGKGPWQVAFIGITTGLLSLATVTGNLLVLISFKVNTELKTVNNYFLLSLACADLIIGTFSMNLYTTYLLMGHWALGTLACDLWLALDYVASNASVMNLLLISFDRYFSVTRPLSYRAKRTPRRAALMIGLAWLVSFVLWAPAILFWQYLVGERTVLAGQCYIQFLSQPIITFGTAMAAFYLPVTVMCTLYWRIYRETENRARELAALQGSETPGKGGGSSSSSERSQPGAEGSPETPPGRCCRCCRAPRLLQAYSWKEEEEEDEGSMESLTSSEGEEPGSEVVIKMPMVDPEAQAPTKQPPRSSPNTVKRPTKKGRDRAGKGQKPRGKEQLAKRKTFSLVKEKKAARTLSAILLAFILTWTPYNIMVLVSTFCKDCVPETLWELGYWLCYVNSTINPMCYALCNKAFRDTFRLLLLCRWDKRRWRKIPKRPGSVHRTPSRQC
Source text: as §1

M2 = biological target: T10, M2 (Homo sapiens, UniProt P08172); experiment: muscarinic receptor binding, M2; conditions: read-out: pKi M2 (converted)
T10 construct: expressed in transfected cells
T10 sequence (P08172 1-466): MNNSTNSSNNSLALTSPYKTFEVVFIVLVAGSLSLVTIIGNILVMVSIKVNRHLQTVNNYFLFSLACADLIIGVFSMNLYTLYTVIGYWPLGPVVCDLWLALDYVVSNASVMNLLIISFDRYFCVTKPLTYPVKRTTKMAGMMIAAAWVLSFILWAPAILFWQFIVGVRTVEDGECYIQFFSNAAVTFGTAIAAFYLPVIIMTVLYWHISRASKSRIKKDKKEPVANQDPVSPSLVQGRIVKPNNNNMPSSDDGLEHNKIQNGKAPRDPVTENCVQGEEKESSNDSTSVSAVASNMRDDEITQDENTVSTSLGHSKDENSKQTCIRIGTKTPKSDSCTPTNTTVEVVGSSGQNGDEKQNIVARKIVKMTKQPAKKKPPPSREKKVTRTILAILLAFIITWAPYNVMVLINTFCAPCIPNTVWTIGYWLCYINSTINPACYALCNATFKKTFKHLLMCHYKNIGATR
Source text: as §1

M3 = biological target: T11, M3 (Homo sapiens, UniProt P20309); experiment: muscarinic receptor binding, M3; conditions: read-out: pKi M3 (converted)
T11 construct: expressed in transfected cells
T11 sequence (P20309 whole entry): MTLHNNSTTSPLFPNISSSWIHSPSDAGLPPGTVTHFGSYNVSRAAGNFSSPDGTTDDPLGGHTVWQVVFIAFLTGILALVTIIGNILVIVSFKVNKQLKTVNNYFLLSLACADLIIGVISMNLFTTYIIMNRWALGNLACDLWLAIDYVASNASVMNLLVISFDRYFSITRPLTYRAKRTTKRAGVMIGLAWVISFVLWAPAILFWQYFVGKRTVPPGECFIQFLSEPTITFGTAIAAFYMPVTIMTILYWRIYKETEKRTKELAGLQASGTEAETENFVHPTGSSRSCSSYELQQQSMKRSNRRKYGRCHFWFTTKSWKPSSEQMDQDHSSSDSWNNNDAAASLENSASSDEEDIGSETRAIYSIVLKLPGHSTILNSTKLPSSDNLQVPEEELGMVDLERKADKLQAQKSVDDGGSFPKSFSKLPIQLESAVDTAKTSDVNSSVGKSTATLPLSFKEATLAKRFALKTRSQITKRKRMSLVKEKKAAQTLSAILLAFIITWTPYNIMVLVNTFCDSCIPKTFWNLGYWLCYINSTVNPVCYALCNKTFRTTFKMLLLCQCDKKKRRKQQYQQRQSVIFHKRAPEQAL
Source text: as §1

M4 = biological target: T12, M4 (Homo sapiens, UniProt P08173); experiment: muscarinic receptor binding, M4; conditions: read-out: pKi M4 (converted)
T12 construct: expressed in transfected cells
T12 sequence (P08173 1-479): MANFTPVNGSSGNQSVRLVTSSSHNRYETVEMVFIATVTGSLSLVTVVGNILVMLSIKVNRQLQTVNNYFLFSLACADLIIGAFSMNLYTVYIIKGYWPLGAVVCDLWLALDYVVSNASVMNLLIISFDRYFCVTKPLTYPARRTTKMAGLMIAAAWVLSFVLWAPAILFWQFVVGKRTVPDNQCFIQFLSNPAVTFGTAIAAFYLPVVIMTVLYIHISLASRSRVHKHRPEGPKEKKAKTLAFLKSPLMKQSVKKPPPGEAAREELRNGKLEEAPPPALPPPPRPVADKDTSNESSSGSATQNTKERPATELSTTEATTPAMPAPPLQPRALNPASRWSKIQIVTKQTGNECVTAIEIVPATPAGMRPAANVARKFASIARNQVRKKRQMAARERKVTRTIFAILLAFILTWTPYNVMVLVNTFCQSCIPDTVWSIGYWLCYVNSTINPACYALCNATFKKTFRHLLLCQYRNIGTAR
Source text: as §1

[1] = plasma levels of 3-OH gepirone after administration of gepirone; format: in vivo; conditions: human subjects administered a dose of gepirone; FIG. 2; result in words
Procedure: “Time (H)” represents time after administration.
Each sample corresponds to a 0.5 ml plasma sample, extracted with 6 ml of (2:1) (v/v) hexane:chloroform for 1 hour. After separation by centrifuge, the organic layer is transferred to a 10 ml conical tube and 90 ul of 1% formic acid is added. The tube is vortexed for 10 minutes and centrifuged for 5 minutes. About 80 ul of the formic acid layer is transferred into injection vials for HPLC/MS analysis.

[2] = cited from earlier work; for half-life: result in words

Row | IC50 (5-HT1A receptor; cloned human GPCR, average of at least three determinations) | selectivity for the 5-HT1A receptor among the serotonergic receptor subtypes (5-HT1A receptor; in vitro binding studies, result in words) | binding at D2A (D2A) | binding at D2B (D2B) | binding at D3 (D3) | IC50 (D4) [µM] | affinity at Alpha 2A (Alpha 2A) | affinity at Alpha 2B (Alpha 2B) | binding at the Alpha 2C receptor (Alpha 2C receptor) | Ki (M1) [µM] | Ki (M2) [µM] | Ki (M3) [µM] | Ki (M4) [µM] | SMILES | plasma levels of 3-OH gepirone [1] | half-life [2] | bioavailability ([2]; delivered orally)
1 | < 0.1 µM and ~0.058 µM | highly selective | insignificant dopaminergic binding | insignificant dopaminergic binding | insignificant dopaminergic binding | ~1.42 | did not display significant affinity | did not display significant affinity | weak binding | > 45.7 | > 45.7 | > 45.7 | > 45.7 | CC1(C)CC(=O)N(CCCCN2CCN(c3ncccn3)CC2)C(=O)C1O (stereo not drawn) [3-OH gepirone, 4,4,-dimethyl-3-hydroxy-1-[4-[4-(2-pyrimidinyl)-1-piperazinyl]butyl]-2,6-piperidinedione] | available quickly and persists in the plasma for extended periods of time | – | –
2 | – | – | – | – | – | – | – | – | – | – | – | – | – | O=C1CC2(CCCC2)CC(=O)N1CCCCN1CCN(c2ncccn2)CC1 [buspirone] | – | very short | –
3 | – | – | – | – | – | – | – | – | – | > 45.7 | > 45.7 | > 45.7 | > 45.7 | CC1(C)CC(=O)N(CCCCN2CCN(c3ncccn3)CC2)C(=O)C1 [gepirone, 4-dimethyl-1-[4-[4-(2-pyrimidinyl)-1-piperazinyl]butyl]-2,6-piperidinedione, reference compound] | – | very short | 14-18%
